Consider twelve molecules from patent US20260297081A1, “COMPOUNDS AND METHODS OF TREATING CANCERS” (Cullgen Inc., priority 2023, published 2026).

SMILES strings stand for the structures.

In this assay the target is CDK4 (Homo sapiens, UniProt P11802+Q16531). In words: CDK4 percentage degradation in Calu-1 cells (Table 6). The assay is classed as cell-based. Also on record: Cells that express cyclin D1-3 and CDK4/6 proteins were treated with heterobifunctional compounds; endogenous in cells; host or cells: Calu-1. As to conditions: 16 hours; for inhibition at 0.04 µM: 40 nM; for inhibition at 0.2 µM: 200 nM. How it is done:
Calu-(cells were treated with heterobifunctional compounds at 40 nM or 200 nM for 16 hours A: protein percentage degradation […]; B: protein percentage degradation <80%, and ≥50%; C: protein percentage degradation <50%, and ≥30%; D; protein percentage degradation […]; -, data not available.
Calu-1, T47D, MCF7, HCC1428 and other cells were cultured at 37° C. with 5% CO2 in RPMI 1640 or DMEM medium supplemented with 10% fetal bovine serum. Cells were authenticated using the short tandem repeat (STR) assays. Mycoplasma test results were negative. For palbo-resistant cell model, T47D cells were cultured long-term to resistance in the presence of 1 μM Palbociclib. Cells were deemed resistant when growing in the presence of Palbo at the same rate as parental cells.
Cultured cells were washed with cold PBS once and lysed in cold RIPA buffer supplemented with protease inhibitors and phosphatase inhibitors (Beyotime Biotechnology). The solutions were then incubated at 4 ? for 30 min with gentle agitation to fully lysed cells. Cell lysates were centrifuged at 13,000 rpm for 10 min at 4 ? and pellets were discarded. Total protein concentrations in the lysates were determined following BCA assays (Beyotime Biotechnology). Cell lysates were mixed with Laemmli loading buffer and heated at 99° C. for 5 min. Proteins were resolved on SDS-PAGE and visualized using Western ECL Substrate kits on a ChemiDoc MP Imaging system (Bio-Rad). Protein bands were quantitated using the Image Lab software provided by Bio-Rad.

CDK4, sequence (P11802 2-303 limits assumed): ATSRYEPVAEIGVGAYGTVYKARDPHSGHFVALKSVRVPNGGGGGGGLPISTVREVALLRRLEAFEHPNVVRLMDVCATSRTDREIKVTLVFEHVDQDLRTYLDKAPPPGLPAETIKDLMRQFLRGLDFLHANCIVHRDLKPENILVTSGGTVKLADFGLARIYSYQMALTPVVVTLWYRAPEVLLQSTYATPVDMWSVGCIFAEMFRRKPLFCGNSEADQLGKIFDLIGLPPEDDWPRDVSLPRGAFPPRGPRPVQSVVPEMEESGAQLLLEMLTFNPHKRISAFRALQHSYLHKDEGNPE
CDK4, sequence (P24385 whole entry partner): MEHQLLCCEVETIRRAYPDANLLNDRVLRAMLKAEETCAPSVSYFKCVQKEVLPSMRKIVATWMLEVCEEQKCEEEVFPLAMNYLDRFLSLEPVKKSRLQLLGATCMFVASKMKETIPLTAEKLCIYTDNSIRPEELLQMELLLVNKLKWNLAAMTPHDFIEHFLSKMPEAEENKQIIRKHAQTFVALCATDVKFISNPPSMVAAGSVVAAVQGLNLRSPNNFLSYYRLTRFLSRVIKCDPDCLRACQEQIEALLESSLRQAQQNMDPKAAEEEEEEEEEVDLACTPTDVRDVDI
CDK4, sequence (Q16531 2-1140 limits assumed): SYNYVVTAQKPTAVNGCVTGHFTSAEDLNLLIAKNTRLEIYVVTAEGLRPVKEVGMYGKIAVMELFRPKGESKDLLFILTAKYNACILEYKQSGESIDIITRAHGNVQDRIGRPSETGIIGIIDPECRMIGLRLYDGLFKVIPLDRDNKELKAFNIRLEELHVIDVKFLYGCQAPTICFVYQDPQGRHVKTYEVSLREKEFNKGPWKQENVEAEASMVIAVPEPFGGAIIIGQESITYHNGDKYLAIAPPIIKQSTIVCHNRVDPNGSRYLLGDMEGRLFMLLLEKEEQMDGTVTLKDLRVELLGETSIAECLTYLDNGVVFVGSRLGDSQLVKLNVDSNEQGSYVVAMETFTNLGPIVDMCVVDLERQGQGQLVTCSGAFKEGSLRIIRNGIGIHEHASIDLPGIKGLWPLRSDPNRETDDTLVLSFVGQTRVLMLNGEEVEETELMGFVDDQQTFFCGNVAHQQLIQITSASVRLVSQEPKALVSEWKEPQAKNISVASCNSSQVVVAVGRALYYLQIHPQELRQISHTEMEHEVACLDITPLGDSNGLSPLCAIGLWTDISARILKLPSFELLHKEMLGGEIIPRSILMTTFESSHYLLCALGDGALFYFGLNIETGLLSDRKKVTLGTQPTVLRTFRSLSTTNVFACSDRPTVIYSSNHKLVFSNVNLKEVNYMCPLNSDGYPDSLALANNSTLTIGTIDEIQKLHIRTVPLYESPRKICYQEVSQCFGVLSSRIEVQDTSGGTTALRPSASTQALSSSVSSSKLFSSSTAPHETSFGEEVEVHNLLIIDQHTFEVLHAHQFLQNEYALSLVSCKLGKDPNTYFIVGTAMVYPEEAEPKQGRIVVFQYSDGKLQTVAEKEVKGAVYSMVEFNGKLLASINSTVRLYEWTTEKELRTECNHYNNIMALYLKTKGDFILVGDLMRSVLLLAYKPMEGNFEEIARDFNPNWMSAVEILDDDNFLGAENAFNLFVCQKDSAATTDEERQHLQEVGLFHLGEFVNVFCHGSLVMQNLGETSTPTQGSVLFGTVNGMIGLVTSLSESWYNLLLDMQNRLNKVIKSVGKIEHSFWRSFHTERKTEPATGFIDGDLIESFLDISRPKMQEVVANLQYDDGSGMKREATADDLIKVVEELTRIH

Regarding `CNc1ccc(C(=O)Nc2ccc(N(C)C)nn2)c(NCCC2CCN(C(=O)CN3CCN(c4ccc(Nc5ncc6c(C)c(C(C)=O)c(=O)n(C7CCCC7)c6n5)nc4)CC3)CC2)n1` [CPD-89, 2-((2-(1-(2-(4-(6-((6-Acetyl-8-cyclopentyl-5-methyl-7-oxo-7,8-dihydropyrido[2,3-d]pyrimidin-2-yl)amino)pyridin-3-yl)piperazin-1-yl)acetyl)piperidin-4-yl)ethyl)amino)-N-(6-(dimethylamino)pyridazin-3-yl)-6-(methylamino)nicotinamide], the inhibition – broadly, the relative decrease from the control value, in per cent – at 0.04 µM was in the range of 50 to 80% and the inhibition at 0.2 µM is 50 to 80%.
In the case of `CNc1ccc(C(=O)Nc2nc(C3CC3)c(C)s2)c(NCCCCCNC(=O)CN2CCN(c3ccc(Nc4ncc5c(C)c(C(C)=O)c(=O)n(C6CCCC6)c5n4)nc3)CC2)n1` [CPD-56, 2-((5-(2-(4-(6-((6-Acetyl-8-cyclopentyl-5-methyl-7-oxo-7,8-dihydropyrido[2,3-d]pyrimidin-2-yl)amino)pyridin-3-yl)piperazin-1-yl)acetamido)pentyl)amino)-N-(4-cyclopropyl-5-methylthiazol-2-yl)-6-(methylamino)nicotinamide], the inhibition at 0.04 µM was in the range of 50 to 80% and the inhibition at 0.2 µM fell in the range of 50 to 80%.
On to `CNc1ccc(C(=O)Nc2ccc(N(C)C)nn2)c(NC2CC(CC(=O)N3CCN(c4ccc(Nc5ncc6c(C)c(C(C)=O)c(=O)n(C7CCCC7)c6n5)nc4)CC3)C2)n1` (centres unmarked) [CPD-148, 2-((3-(2-(4-(6-((6-acetyl-8-cyclopentyl-5-methyl-7-oxo-7,8-dihydropyrido[2,3-d]pyrimidin-2-yl)amino)pyridin-3-yl)piperazin-1-yl)-2-oxoethyl)cyclobutyl)amino)-N-(6-(dimethylamino)pyridazin-3-yl)-6-(methylamino)nicotinamide], for which the inhibition at 0.04 µM lay in the range of 50 to 80% and the inhibition at 0.2 µM was above 80%.
The matching figures for `CNc1ccc(C(=O)Nc2cc(C)n(C)n2)c(NC2CCN(C(=O)CN3CCN(c4ccc(Nc5ncc6c(C)c(C(C)=O)c(=O)n(C7CCCC7)c6n5)nc4)CC3)CC2)n1` [CPD-228, 2-((1-(2-(4-(6-((6-acetyl-8-cyclopentyl-5-methyl-7-oxo-7,8-dihydropyrido[2,3-d]pyrimidin-2-yl)amino)pyridin-3-yl)piperazin-1-yl)acetyl)piperidin-4-yl)amino)-N-(1,5-dimethyl-1H-pyrazol-3-yl)-6-(methylamino)nicotinamide]: below 30% and 30 to 50%.
`CNc1ccc(C(=O)Nc2ccc(F)c(C3CC3)n2)c(NC2CC3(CC(NC(=O)CN4CCN(c5ccc(Nc6ncc7c(C)c(C(C)=O)c(=O)n(C8CCCC8)c7n6)nc5)CC4)C3)C2)n1` (centres unmarked) [CPD-128, 2-((6-(2-(4-(6-((6-Acetyl-8-cyclopentyl-5-methyl-7-oxo-7,8-dihydropyrido[2,3-d]pyrimidin-2-yl)amino)pyridin-3-yl)piperazin-1-yl)acetamido)spiro[3.3]heptan-2-yl)amino)-N-(6-cyclopropyl-5-fluoropyridin-2-yl)-6-(methylamino)nicotinamide] showed an inhibition at 0.04 µM of 50 to 80% and an inhibition at 0.2 µM of 50 to 80%.
`CNc1ccc(C(=O)Nc2ccc(C#N)c(C3CC3)n2)c(NC2CC3(CC(NC(=O)CN4CCN(c5ccc(Nc6ncc7c(C)c(C(C)=O)c(=O)n(C8CCCC8)c7n6)nc5)CC4)C3)C2)n1` (centres unmarked) [CPD-132, 2-((6-(2-(4-(6-((6-Acetyl-8-cyclopentyl-5-methyl-7-oxo-7,8-dihydropyrido[2,3-d]pyrimidin-2-yl)amino)pyridin-3-yl)piperazin-1-yl)acetamido)spiro[3.3]heptan-2-yl)amino)-N-(5-cyano-6-cyclopropylpyridin-2-yl)-6-(methylamino)nicotinamide]: the inhibition at 0.04 µM was below 30% and the inhibition at 0.2 µM was in the range of 50 to 80%.
The matching figures for `CNc1ccc(C(=O)Nc2ccn(C)n2)c(NCCCCCNC(=O)CN2CCN(c3ccc(Nc4ncc5c(C)c(C(C)=O)c(=O)n(C6CCCC6)c5n4)nc3)CC2)n1` [CPD-49, 2-((5-(2-(4-(6-((6-Acetyl-8-cyclopentyl-5-methyl-7-oxo-7,8-dihydropyrido[2,3-d]pyrimidin-2-yl)amino)pyridin-3-yl)piperazin-1-yl)acetamido)pentyl)amino)-N-(1-methyl-1H-pyrazol-3-yl)-6-(methylamino)nicotinamide]: 50 to 80% and 50 to 80%.
The matching figures for `CNc1ccc(C(=O)Nc2cc(C)n(C)n2)c(NC[C@H]2CC[C@H](NC(=O)CN3CCN(c4ccc(Nc5ncc6c(C)c(C(C)=O)c(=O)n(C7CCCC7)c6n5)nc4)CC3)CC2)n1` [CPD-131, 2-(((trans-4-(2-(4-(6-((6-Acetyl-8-cyclopentyl-5-methyl-7-oxo-7,8-dihydropyrido[2,3-d]pyrimidin-2-yl)amino)pyridin-3-yl)piperazin-1-yl)acetamido)cyclohexyl)methyl)amino)-N-(1,5-dimethyl-1H-pyrazol-3-yl)-6-(methylamino)nicotinamide]: below 30% and 50 to 80%.
On to `CNc1ccc(C(=O)Nc2ccc(C(F)(F)F)nn2)c(NCCCCCNC(=O)CN2CCN(c3ccc(Nc4ncc5c(C)c(C(C)=O)c(=O)n(C6CCCC6)c5n4)nc3)CC2)n1` [CPD-19, 2-((5-(2-(4-(6-((6-Acetyl-8-cyclopentyl-5-methyl-7-oxo-7,8-dihydropyrido[2,3-d]pyrimidin-2-yl)amino)pyridin-3-yl)piperazin-1-yl)acetamido)pentyl)amino)-6-(methylamino)-N-(6-(trifluoromethyl)pyridazin-3-yl)nicotinamide], for which the inhibition at 0.04 µM is below 30%.
Turning to `CNc1ccc(C(=O)Nc2ccc(N(C)C)nn2)c(NC2CC(NC(=O)C(C)(C)N3CCN(c4ccc(Nc5ncc6c(C)c(C(C)=O)c(=O)n(C7CCCC7)c6n5)nc4)CC3)C2)n1` (centres unmarked) [CPD-243, 2-((3-(2-(4-(6-((6-acetyl-8-cyclopentyl-5-methyl-7-oxo-7,8-dihydropyrido[2,3-d]pyrimidin-2-yl)amino)pyridin-3-yl)piperazin-1-yl)-2-methylpropanamido)cyclobutyl)amino)-N-(6-(dimethylamino)pyridazin-3-yl)-6-(methylamino)nicotinamide], the inhibition at 0.04 µM was in the range of 50 to 80% and the inhibition at 0.2 µM was in the range of 50 to 80%.
Consider `[2H]C([2H])([2H])Nc1ccc(C(=O)Nc2ccc(N(C)C)nn2)c(NC2CC3(C2)CN(C(=O)C(F)(F)CN2CCN(c4ccc(Nc5ncc6c(C)c(C(C)=O)c(=O)n(C7CCCC7)c6n5)nc4)CC2)C3)n1` [CPD-249, 2-((2-(3-(4-(6-((6-acetyl-8-cyclopentyl-5-methyl-7-oxo-7,8-dihydropyrido[2,3-d]pyrimidin-2-yl)amino)pyridin-3-yl)piperazin-1-yl)-2,2-difluoropropanoyl)-2-azaspiro[3.3]heptan-6-yl)amino)-N-(6-(dimethylamino)pyridazin-3-yl)-6-((methyl-d3)amino)nicotinamide], for which the inhibition at 0.04 µM was 50 to 80% and the inhibition at 0.2 µM was 50 to 80%.
`CNc1ccc(C(=O)Nc2cccc(C)n2)c(NC2CC(NC(=O)CN3CCN(c4ccc(Nc5ncc6c(C)c(C(C)=O)c(=O)n(C7CCCC7)c6n5)nc4)CC3)C2)n1` (centres unmarked) [CPD-196, 2-((3-(2-(4-(6-((6-acetyl-8-cyclopentyl-5-methyl-7-oxo-7,8-dihydropyrido[2,3-d]pyrimidin-2-yl)amino)pyridin-3-yl)piperazin-1-yl)acetamido)cyclobutyl)amino)-6-(methylamino)-N-(6-methylpyridin-2-yl)nicotinamide] gave an inhibition at 0.04 µM below 30% and an inhibition at 0.2 µM of 30 to 50%.
